{"source": "patent EP4570798A1", "about": "“AROMATIC HETEROCYCLIC CYCLOHEXYL AMINOALKYL PIPERIDINE DERIVATIVE, PREPARATION METHOD AND USE THEREOF” (Jiangsu NHWA Pharmaceutical Co., Ltd, priority 2022, dated 2024)", "key": {"5-HT1A [1]": {"molecular_target": "T1, 5-HT1A (Homo sapiens, UniProt P08908)", "T1 sequence (P08908 1-422)": "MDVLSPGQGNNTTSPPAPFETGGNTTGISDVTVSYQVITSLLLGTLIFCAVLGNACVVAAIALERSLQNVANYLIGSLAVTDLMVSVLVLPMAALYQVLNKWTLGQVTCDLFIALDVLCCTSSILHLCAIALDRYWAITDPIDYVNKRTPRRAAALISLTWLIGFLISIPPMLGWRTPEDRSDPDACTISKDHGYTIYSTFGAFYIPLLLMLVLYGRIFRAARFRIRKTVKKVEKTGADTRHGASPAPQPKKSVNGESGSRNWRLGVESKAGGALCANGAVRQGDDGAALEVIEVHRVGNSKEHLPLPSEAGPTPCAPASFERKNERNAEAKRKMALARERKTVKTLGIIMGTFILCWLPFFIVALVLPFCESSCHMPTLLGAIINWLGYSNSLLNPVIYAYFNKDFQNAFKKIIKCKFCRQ", "details": "literature value; cited from earlier work"}, "D3": {"molecular_target": "D3 (Homo sapiens, UniProt P35462)", "sequence (P35462 whole entry)": "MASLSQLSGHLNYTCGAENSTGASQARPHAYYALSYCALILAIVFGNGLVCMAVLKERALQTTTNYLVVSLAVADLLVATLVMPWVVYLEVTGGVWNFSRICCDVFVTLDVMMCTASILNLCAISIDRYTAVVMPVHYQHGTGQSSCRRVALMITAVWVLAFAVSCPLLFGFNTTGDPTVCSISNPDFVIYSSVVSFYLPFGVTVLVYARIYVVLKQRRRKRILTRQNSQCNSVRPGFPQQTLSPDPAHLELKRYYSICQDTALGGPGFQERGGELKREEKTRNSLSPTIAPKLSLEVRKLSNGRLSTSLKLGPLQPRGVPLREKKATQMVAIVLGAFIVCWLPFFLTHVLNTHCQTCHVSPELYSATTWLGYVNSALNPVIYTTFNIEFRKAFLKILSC", "details": "literature value; cited from earlier work"}, "D2": {"molecular_target": "D2 (Homo sapiens, UniProt P14416)", "sequence (P14416 whole entry)": "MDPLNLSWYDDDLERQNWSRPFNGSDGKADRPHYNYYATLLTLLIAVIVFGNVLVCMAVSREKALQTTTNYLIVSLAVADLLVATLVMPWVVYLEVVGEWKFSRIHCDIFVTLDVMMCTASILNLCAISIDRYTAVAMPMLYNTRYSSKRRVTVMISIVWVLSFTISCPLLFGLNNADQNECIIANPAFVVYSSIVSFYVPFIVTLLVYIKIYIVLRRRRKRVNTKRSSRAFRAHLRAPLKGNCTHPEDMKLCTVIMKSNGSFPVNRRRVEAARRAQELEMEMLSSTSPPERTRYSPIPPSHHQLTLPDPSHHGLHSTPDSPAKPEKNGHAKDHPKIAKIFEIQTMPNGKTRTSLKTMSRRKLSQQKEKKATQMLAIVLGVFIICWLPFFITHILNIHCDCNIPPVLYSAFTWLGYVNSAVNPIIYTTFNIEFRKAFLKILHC", "details": "literature value; cited from earlier work"}, "Dopamine D2L receptor": {"molecular_target": "Dopamine D2L receptor (Homo sapiens, UniProt P14416)", "sequence (P14416 whole entry)": "as above", "experiment": "In vitro dopamine D2L receptor function experiment (cAMP, forskolin-stimulated HEK293/D2L cells)", "description": "• (1) Compound preparation: The test compounds and dopamine were diluted to a concentration of 200 nM for later use. • (2) Experimental buffer preparation: The 5× stimulation buffer was diluted to 1× with ddH2O, and IBMX was added to a final concentration of 0.5 mM. The mixture was mixed well for later use. • (3) The cells were digested with trypsin, and centrifugation was performed after the digestion was terminated. The cell pellet was resuspended in 10 mL of pre-warmed HBSS and centrifuged again. Then, 1 mL of stimulation buffer was added for resuspension, and 20 µL of the cell suspension was taken for cell counting. • (4) An appropriate amount of the cell suspension was taken and diluted to 0.4 × 10^6 cells/mL, and 5 µL of the diluted cell suspension was added to each well of a cell plate and centrifuged at 1000 rpm for 1 min. • (5) Compound dilution and transfer using bravo: The compounds were diluted 4-fold to obtain 8 concentration points in the compound plate. The diluted compounds in the whole plate were then transferred to a 384-well white plate using bravo and centrifuged at 1000 rpm for 1 min. • (6) The experimental plate was sealed and incubated at room temperature for 15 min. • (7) Forskolin, prepared with DMSO, was added at 25.1 nL/well using Tecan D300e, with a mother liquor concentration of 0.2 mM and a final concentration of 0.25 µM, followed by centrifugation at 1000 rpm for 1 min. • (8) The plate was sealed and incubated at room temperature for 45 min. • (9) cAMP standard curve preparation: A 4-fold serial dilution was performed to obtain 8 concentration points from a starting concentration of 2848 nM. Then, 10 µL of each dilution was taken and added to the experimental plate, with a maximum concentration of 712 nM. • (10) 5 µL of cAMP-d2 solution (stock solution diluted at 1:20 with lysis buffer) was added to the experimental plate, and the plate was centrifuged at 1000 rpm for 1 min. • (11) Then, 5 µL of Anti-cAMP-Cryptate solution (stock solution diluted at 1:20 with lysis buffer) was added to the experimental plate, and the plate was centrifuged at 1000 rpm for 1 min. • (12) The experimental plate was incubated at room temperature for 45 min and centrifuged at 1000 rpm for 1 min before reading. • (13) Plate reading was performed using Envision, with excitation light at 320 nm and emission lights at 620 nm and 665 nm. The derived data were analyzed, and the maximum activation rates Emax and EC50 of the compounds were calculated."}, "5-HT1A [2]": {"molecular_target": "T1, 5-HT1A", "experiment": "In vitro 5HT1A receptor function experiment (cAMP, forskolin-stimulated HEK293/5HT1A cells)", "format": "cell-based", "set-up": "expressed in transfected cells; host or cells: HEK293", "protocol": "1.1.1 Cell information: HEK293/5HT1A: a stably transfected cell strain HEK293/5HT1A constructed by adopting 5HT1A receptor lentivirus to infect HEK293; growth culture medium: DMEM, 10% FBS, and 0.6 µg/mL puro; and cryopreservation culture medium: 70% culture medium, 20% FBS, and 10% DMSO."}, "hERG potassium channel": {"molecular_target": "hERG potassium channel (Homo sapiens, UniProt Q12809)", "sequence (Q12809 whole entry)": "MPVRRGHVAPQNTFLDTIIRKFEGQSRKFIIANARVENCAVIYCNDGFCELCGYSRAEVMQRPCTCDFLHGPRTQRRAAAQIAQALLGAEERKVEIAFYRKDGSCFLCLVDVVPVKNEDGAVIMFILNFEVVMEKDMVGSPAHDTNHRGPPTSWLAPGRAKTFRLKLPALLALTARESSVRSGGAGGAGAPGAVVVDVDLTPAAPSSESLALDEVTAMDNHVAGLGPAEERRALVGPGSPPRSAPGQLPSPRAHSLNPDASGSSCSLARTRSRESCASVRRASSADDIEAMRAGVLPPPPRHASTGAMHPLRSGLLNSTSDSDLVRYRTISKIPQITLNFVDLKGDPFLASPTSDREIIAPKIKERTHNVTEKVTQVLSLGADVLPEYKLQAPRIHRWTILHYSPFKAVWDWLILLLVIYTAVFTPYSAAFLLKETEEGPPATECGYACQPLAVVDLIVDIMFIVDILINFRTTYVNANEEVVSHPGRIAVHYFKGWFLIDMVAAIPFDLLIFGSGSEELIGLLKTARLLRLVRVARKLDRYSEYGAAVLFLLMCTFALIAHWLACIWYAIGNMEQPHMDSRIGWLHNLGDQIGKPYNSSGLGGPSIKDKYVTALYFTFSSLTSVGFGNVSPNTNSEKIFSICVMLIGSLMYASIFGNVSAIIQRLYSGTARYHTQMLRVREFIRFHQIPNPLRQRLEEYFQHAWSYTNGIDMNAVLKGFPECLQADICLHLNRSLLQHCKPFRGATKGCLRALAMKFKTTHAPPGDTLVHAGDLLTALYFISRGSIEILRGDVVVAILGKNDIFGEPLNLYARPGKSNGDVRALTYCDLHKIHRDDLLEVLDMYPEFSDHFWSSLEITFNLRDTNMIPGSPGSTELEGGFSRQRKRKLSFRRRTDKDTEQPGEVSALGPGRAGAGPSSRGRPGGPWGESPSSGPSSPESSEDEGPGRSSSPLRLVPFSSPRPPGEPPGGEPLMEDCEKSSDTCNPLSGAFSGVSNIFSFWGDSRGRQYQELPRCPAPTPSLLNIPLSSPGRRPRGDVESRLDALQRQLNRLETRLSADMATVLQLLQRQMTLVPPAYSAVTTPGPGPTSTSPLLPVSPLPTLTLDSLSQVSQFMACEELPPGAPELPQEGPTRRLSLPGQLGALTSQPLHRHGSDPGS", "experiment": "In vitro hERG experiment (whole-cell patch clamp)", "format": "cell-based", "details": "whole-cell patch clamp, tail current, room temperature", "protocol": "Extracellular fluid: 140 mM NaCl, 3.5 mM KCl, 1 mM MgCl2, 2 mM CaCl2, 10 mM Glucose, 10 mM HEPES, and 1.25 mM NaH2PO4, with the pH adjusted to 7.4 by NaOH.\nUnder an inverted microscope, recording electrodes were controlled by a glass electrode micromanipulator (micromanipulation) to contact with the cell. A negative voltage was applied to form a GΩ seal. After forming the GΩ seal, a rapid capacitance compensation was given. Under the continuous negative voltage, the cell membrane was ruptured to establish a whole-cell recording mode. In the whole-cell recording mode, a slow capacitance compensation was given, and the values of membrane capacitance and series resistance were recorded.\nVoltage stimulation scheme for cellular hERG potassium current: the cell membrane clamping voltage was -80 mV; the voltage was first elevated from -80 mV to +30 mV, held for 2.5 s, and rapidly changed to and held at -50 mV for 4 s, thus exciting the hERG channel tail current. Data were acquired every 10 s. Leak current detection was performed at -50 mV.\nThe coverslip with seeded cells was placed in the recording chamber of the inverted microscope. Negative control and test compounds flowed through the recording chamber in an ascending order of concentration by gravity perfusion to quickly act on the cells. During the recording, the extracellular fluid was continuously circulated by a vacuum pump. The current detected in a cell in the negative control was used as the background for the cell. Each compound concentration was allowed to act for 5 min or until the current was stabilized. All experiments were performed at room temperature.\nThe current of each compound concentration was first normalized according to (peak tail current compound)/(peak tail current vehicle), and then the corresponding inhibition rate was calculated according to (1 - (peak tail current compound)/(peak tail current vehicle)). Basic statistics were calculated for each concentration, including mean, standard deviation (SD), standard error (SE), and replicates (n). […] Curve fitting and calculation of IC50 were performed by GraphPad Prism 5.0 software."}, "5HT1A/1B": {"tested_on": "5HT1A/1B", "details": "5HT1A/1B agonist, literature value; cited from earlier work"}}, "note": "Counter-ions that a name gives are not always drawn. Like-named read-outs stand apart in the source and are kept apart here.", "data": [{"smiles": "O=c1[nH]c2cccc(N3CCN(Cc4cccc(-c5ccccc5)c4)CC3)c2o1", "note": "[Bifeprunox]", "values": [{"measurement": "EC50", "setting": "5-HT1A [1]", "value": 47.8, "unit": "nM"}, {"measurement": "IC50", "setting": "D3", "value": 15.2, "unit": "nM"}, {"measurement": "EC50", "setting": "D2", "value": 39.8, "unit": "nM"}]}, {"smiles": "CCCN(CC1CCN(C(=O)OC)CC1)C1CCc2nc(N)sc2C1", "note": "(stereo not shown) [Comparative Example 2, Methyl 4-(((2-amino-4,5,6,7-tetrahydrobenzo[d]thiazol-6-yl)(propyl)amino)methyl)piperidine-1-carboxylate hydrochloride, reference compound]", "values": [{"measurement": "EC50", "setting": "Dopamine D2L receptor", "value": 1.68, "unit": "nM"}, {"measurement": "Emax", "setting": "Dopamine D2L receptor; HEK293, read-out: D2L Emax", "value": 112, "unit": "%"}, {"measurement": "EC50", "setting": "5-HT1A [2]; forskolin 1 µM", "value": 247, "unit": "nM"}, {"measurement": "Emax", "setting": "5-HT1A [2]; maximum activation rate", "value": 95.4, "unit": "%"}, {"measurement": "IC50", "setting": "hERG potassium channel", "value": 4700, "unit": "nM"}]}, {"smiles": "c1cc2c(c(N3CCNCC3)c1)OCCO2", "note": "[Eltoprazine]", "values": [{"measurement": "EC50", "setting": "5HT1A/1B", "value": 148, "unit": "nM"}]}, {"smiles": "Cc1ccc(CNCC2(F)CCN(C(=O)c3ccc(F)c(Cl)c3)CC2)nc1", "note": "[NLX-112]", "values": [{"measurement": "5-HT1A Emax", "setting": "5-HT1A [1]", "value": 84, "unit": "%"}]}, {"smiles": "CN1CCN(c2cccc3[nH]c(=O)oc23)CC1", "note": "[Pardoprunox]", "values": [{"measurement": "EC50", "setting": "5-HT1A [1]", "value": 500, "unit": "nM"}, {"measurement": "EC50", "setting": "D3", "value": 0.6, "unit": "nM"}, {"measurement": "EC50", "setting": "D2", "value": 10, "unit": "nM"}]}]}
